Experimental data: ChEMBL document CHEMBL1201862, “PubChem BioAssay data set” (2004)
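Five compound concentrations were applied to cells in 96-well plates for 48 hours; endpoints were derived by simple linear interpolation of the resulting dose-response curve. The concentration for 50% growth inhibition is given as GI50.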 Activity calls are given as the source filed them. Rule as the data show it: active = GI50 up to about 1.1 µM and inactive = higher.

Assays:
Assay in all cases: NCI-60 cell line screen, 48 h
A549 = test system: A549
M14 = test system: M14
COLO 205 = test system: COLO 205
NCI-H226 = test system: NCI-H226
SF-268 = test system: SF-268
A498 = test system: A498
SF-539 = test system: SF-539
IGROV-1 = test system: IGROV-1
MOLT-4 = test system: MOLT-4
SW-620 = test system: SW-620
SN12C = test system: SN12C
OVCAR-3 = test system: OVCAR-3
HOP-62 = test system: HOP-62
TK-10 = test system: TK-10
SK-MEL-5 = test system: SK-MEL-5
CCRF-CEM = test system: CCRF-CEM
NCI-H460 = test system: NCI-H460
HT-29 = test system: HT-29

Measured: GI50

Cc1ccc(C2=Nc3ccccc3SC(c3cccc4c3OCO4)C2)cc1 (stereo not drawn)
inactive: A549 23.9 µM | M14 18 µM | COLO 205 18.3 µM | NCI-H226 18.1 µM | SF-268 21.1 µM | A498 14.7 µM | SF-539 20 µM | IGROV-1 16.7 µM | MOLT-4 17.9 µM | SW-620 19.1 µM | SN12C 19.5 µM | OVCAR-3 14.8 µM | HOP-62 33.1 µM | TK-10 21.2 µM | SK-MEL-5 16.2 µM | CCRF-CEM 15.7 µM | NCI-H460 31.3 µM | HT-29 16.9 µM

CC(C)(C)C(=O)OC12/C(=N/O)CCCCCC1c1ccccc12 (stereo not drawn)
inactive: A549 17.8 µM | M14 16.9 µM | COLO 205 17 µM | NCI-H226 17.7 µM | SF-268 16.4 µM | A498 16.9 µM | SF-539 23.2 µM | IGROV-1 16.1 µM | MOLT-4 14.5 µM | SW-620 17.6 µM | SN12C 19 µM | OVCAR-3 17.4 µM | HOP-62 21.7 µM | TK-10 15.9 µM | SK-MEL-5 17.8 µM | CCRF-CEM 23.4 µM | NCI-H460 17.3 µM | HT-29 13.3 µM

COc1ccc2[nH]cc(CCNC(C)=O)c2c1 [MELATONIN]
inactive: A549 > 100 µM | M14 > 100 µM | COLO 205 29.9 µM | SF-268 > 100 µM | A498 > 100 µM | SF-539 > 100 µM | IGROV-1 > 100 µM | MOLT-4 > 100 µM | SW-620 8.17 µM | SN12C > 100 µM | OVCAR-3 > 100 µM | HOP-62 > 100 µM | TK-10 > 100 µM | SK-MEL-5 > 100 µM | CCRF-CEM > 100 µM | NCI-H460 > 100 µM | HT-29 69 µM

O=C1C2C3SC(c4cc5ccccc5cc43)C2C(=O)N1c1ccccc1 (stereo not drawn)
inactive: A549 > 100 µM | M14 > 100 µM | COLO 205 > 100 µM | NCI-H226 > 100 µM | SF-268 > 100 µM | A498 41.8 µM | SF-539 85.3 µM | IGROV-1 > 100 µM | MOLT-4 > 100 µM | SW-620 > 100 µM | SN12C > 100 µM | OVCAR-3 > 100 µM | TK-10 > 100 µM | SK-MEL-5 > 100 µM | CCRF-CEM > 100 µM | HT-29 > 100 µM

Cc1cc(NS(=O)(=O)c2ccc(NC(=O)c3ccc(Cl)c4c(Nc5ccc(S(=O)(=O)N=C(N)N)cc5)c5ccccc5nc34)cc2)no1
inactive: M14 > 100 µM | SF-268 42.3 µM | A498 > 100 µM | SF-539 30.5 µM | MOLT-4 15.2 µM | SN12C 32.3 µM | OVCAR-3 27 µM | HOP-62 21.6 µM | TK-10 > 100 µM | CCRF-CEM 28.3 µM | NCI-H460 > 100 µM | HT-29 45.8 µM

Cc1ccc(C(O)(c2ccc(C)cc2)c2ccccn2)cc1
inactive: A549 64.6 µM | M14 > 100 µM | COLO 205 > 100 µM | NCI-H226 > 100 µM | SF-268 > 100 µM | A498 > 100 µM | SF-539 > 100 µM | IGROV-1 > 100 µM | SW-620 > 100 µM | SN12C > 100 µM | OVCAR-3 > 100 µM | HOP-62 > 100 µM | TK-10 62.1 µM | SK-MEL-5 > 100 µM | CCRF-CEM 51.5 µM | NCI-H460 > 100 µM | HT-29 80.7 µM

CC(=O)OC1C(CCl)OC(N=[N+]=[N-])C(OC(C)=O)C1OC(C)=O (stereo not drawn)
inactive: A549 > 100 µM | M14 > 100 µM | COLO 205 > 100 µM | SF-268 > 100 µM | A498 > 100 µM | SF-539 > 100 µM | IGROV-1 > 100 µM | MOLT-4 > 100 µM | SW-620 > 100 µM | SN12C > 100 µM | OVCAR-3 > 100 µM | HOP-62 > 100 µM | TK-10 > 100 µM | SK-MEL-5 > 100 µM | CCRF-CEM > 100 µM | NCI-H460 > 100 µM | HT-29 > 100 µM

COc1cccc(/C=C(/C(=O)O)c2cc(OC)c(OC)c(OC)c2)c1
inactive: A549 > 100 µM | M14 > 100 µM | COLO 205 > 100 µM | NCI-H226 > 100 µM | SF-268 > 100 µM | A498 > 100 µM | SF-539 > 100 µM | IGROV-1 > 100 µM | MOLT-4 > 100 µM | SW-620 > 100 µM | SN12C > 100 µM | OVCAR-3 > 100 µM | HOP-62 > 100 µM | TK-10 > 100 µM | SK-MEL-5 > 100 µM | CCRF-CEM 46.5 µM | NCI-H460 > 100 µM | HT-29 > 100 µM
